Assay [1] concerns the target K-Ras^G12C : hSOS1 interaction (Homo sapiens, UniProt Q07889). Nature of the assay: Biochemical assay 1: K-Ras^G12C interaction assay with hSOS1 (HTRF). The class given is binding. As to conditions: read-out: Assay 1 (KRAS-SOS Interaction) activity expressed as IC50. (In general: Time-resolved FRET reads energy transfer from a long-lived donor to a nearby acceptor.)
Assay [2] addresses human SOS1 (loading of human K-Ras^G12C-GDP with fluorescent GTP-analog) (Homo sapiens, UniProt Q07889). Nature of the assay: Biochemical assay 3: K-Ras^G12C activation assay by hSOS1 (HTRF). As to conditions: no GTP; read-out: Assay 3 (KRAS-Activation by SOS no GTP) activity expressed as IC50.

For the compound `COc1cc2nc(C)nc(NC(C)c3ccc(-c4ccccc4CN4CC5(CNC(=O)N5)C4)s3)c2cc1OC` (stereo not shown) [Example 313, 2-[2-(5-{1-[(6,7-dimethoxy-2-methylquinazolin-4-yl)amino]ethyl}thiophen-2-yl)benzyl]-2,5,7-triazaspiro[3.4]octan-6-one], the half-maximal inhibitory concentration (IC50) amounted to 0.167 µM in assay [1] and 0.15 µM in assay [2].

Consider `COc1cc2nc(C)nc(NC(C)c3ccc(-c4ccc(F)cc4CNC(=O)[C@@H]4CCCN4)s3)c2cc1OC` (stereo partly drawn) [Example 314, N-[2-(5-{1-[(6,7-dimethoxy-2-methylquinazolin-4-yl)amino]ethyl}thiophen-2-yl)-5-fluorobenzyl]-L-prolinamide], for which the IC50 in assay [1] is 0.104 µM; in assay [2] it was 0.0901 µM.

Turning to `COc1cc2nc(C)nc(NC(C)c3ccc(-c4ccccc4CNCC(F)F)s3)c2cc1OC` (stereo not shown) [Example 315, N-{1-[5-(2-{[(2,2-difluoroethyl)amino]methyl}phenyl)thiophen-2-yl]ethyl}-6,7-dimethoxy-2-methylquinazolin-4-amine], the IC50 in assay [1] came to 0.777 µM; in assay [2], 1.28 µM.

As for `COc1cc2nc(C)nc(NC(C)c3ccc(-c4ccccc4CN4CCC4)s3)c2cc1OC` (stereo not shown) [Example 317, N-[1-{5-[2-(azetidin-1-ylmethyl)phenyl]thiophen-2-yl}ethyl]-6,7-dimethoxy-2-methylquinazolin-4-amine], the half-inhibitory concentration (IC50) in assay [1] came to 0.076 µM; in assay [2] it was 0.0884 µM.

Regarding `COc1cc2nc(C)nc(NC(C)c3ccc(-c4ccccc4CN4CC[C@H]4CO)s3)c2cc1OC` (stereo partly drawn) [Example 318, {1-[(2S)-(5-{1-[(6,7-dimethoxy-2-methylquinazolin-4-yl)amino]ethyl}thiophen-2-yl)benzyl]azetidin-2-yl}methanol], the results for the IC50 in assay [1] and in assay [2] were 0.171 µM and 0.221 µM, respectively.

Consider `COc1cc2nc(C)nc(NC(C)c3ccc(-c4ccccc4CN4CC(N(C)C)C4)s3)c2cc1OC` (stereo not shown) [Example 319, N-{1-[5-(2-{[3-(dimethylamino)azetidin-1-yl]methyl}phenyl)thiophen-2-yl]ethyl}-6,7-dimethoxy-2-methylquinazolin-4-amine], for which the results for the 50% inhibitory concentration (IC50) in assay [1] and in assay [2] were 0.164 µM and 0.127 µM, respectively.

For `COc1cc2nc(C)nc(NC(C)c3ccc(-c4ccccc4CN4CC(F)(F)C4)s3)c2cc1OC` (stereo not shown) [Example 320, N-[1-(5-{2-[(3,3-difluoroazetidin-1-yl)methyl]phenyl}thiophen-2-yl)ethyl]-6,7-dimethoxy-2-methylquinazolin-4-amine], the IC50 in assay [1] was 2.26 µM; in assay [2], 3.49 µM.

For `COc1cc2nc(C)nc(NC(C)c3ccc(-c4ccccc4CN(C)CC(F)(F)F)s3)c2cc1OC` (stereo not shown) [Example 321, 6,7-di methoxy-2-methyl-N-{1-[5-(2-{[methyl(2,2,2-trifluoroethyl)amino]methyl}phenyl)thiophen-2-yl]ethyl}quinazolin-4-amine], the results for the IC50 in assay [1] and in assay [2] were 14.8 µM and 12.8 µM, respectively.

For `COc1cc2nc(C)nc(NC(C)c3ccc(-c4ccccc4CN4CC(F)C4)s3)c2cc1OC` (stereo not shown) [Example 322, N-[1-(5-{2-[(3-fluoroazetidin-1-yl)methyl]phenyl}thiophen-2-yl)ethyl]-6,7-dimethoxy-2-methylquinazolin-4-amine], the IC50 in assay [1] came out at 0.408 µM; in assay [2], 0.268 µM.

As for `COc1cc2nc(C)nc(NC(C)c3ccc(-c4ccc(Cl)cc4CN(C)C)s3)c2cc1OC` (stereo not shown) [Example 323, N-[1-(5-{4-chloro-2-[(dimethylamino)methyl]phenyl}thiophen-2-yl)ethyl]-6,7-dimethoxy-2-methylquinazolin-4-amine], the IC50 in assay [1] is 0.0395 µM; in assay [2], 0.0664 µM.

For `COc1cc2nc(C)nc(NC(C)c3ccc(-c4ccccc4C(C)=O)s3)c2cc1OC` (stereo not shown) [Example 324, 1-[2-(5-{1-[(6,7-dimethoxy-2-methylquinazolin-4-yl)amino]ethyl}thiophen-2-yl)phenyl]ethanone], the IC50 is 1.29 µM in assay [1] and 6.84 µM in assay [2].

In the case of `COc1cc2nc(C)nc(NC(C)c3ccc(-c4ccccc4OCCN4CCCC4)s3)c2cc1OC` (stereo not shown) [Example 325, 6,7-di methoxy-2-methyl-N-[1-(5-{2-[2-(pyrrolidin-1-yl)ethoxy]phenyl}thiophen-2-yl)ethyl]quinazolin-4-amine], the values for the IC50 in assay [1] and in assay [2] were 0.228 µM and 0.438 µM, respectively.

As for `COc1cc2nc(C)nc(NC(C)c3cccc4sc(C)cc34)c2cc1OC` (stereo not shown) [Example 330, 6,7-dimethoxy-2-methyl-N-[1-(2-methyl-1-benzothiophen-4-yl)ethyl]quinazolin-4-amine], the IC50 in assay [1] turned out to be 0.227 µM; in assay [2], 0.547 µM.

With `COc1cc2nc(C)nc(NC(C)c3ccnc4sccc34)c2cc1OC` (stereo not shown) [Example 331, 6,7-dimethoxy-2-methyl-N-[1-(thieno[2,3-b]pyridin-4-yl)ethyl]quinazolin-4-amine], the IC50 turned out to be 0.919 µM in assay [1] and 3.17 µM in assay [2].

For the compound `COc1cc2nc(C)nc(NC(C)c3cncc4sccc34)c2cc1OC` (stereo not shown) [Example 332, 6,7-dimethoxy-2-methyl-N-[1-(thieno[2,3-c]pyridin-4-yl)ethyl]quinazolin-4-amine], the IC50 turned out to be 2.25 µM in assay [1] and 11.4 µM in assay [2].

For the compound `COc1cc2nc(C)nc(NC(C)c3nccc4sccc34)c2cc1OC` (stereo not shown) [Example 333, 6,7-dimethoxy-2-methyl-N-[1-(thieno[3,2-c]pyridin-4-yl)ethyl]quinazolin-4-amine], the IC50 in assay [1] was 13 µM; in assay [2], 14.8 µM.

Take `COc1cc2nc(C)nc(N[C@H](C)c3cccc(-c4c(C)n[nH]c4C)c3)c2cc1OC` [Example 334, N-{(1R)-1-[3-(3,5-dimethyl-1H-pyrazol-4-yl)phenyl]ethyl}-6,7-dimethoxy-2-methylquinazolin-4-amine]: the IC50 was 0.362 µM in assay [1] and 1.41 µM in assay [2].

For the compound `COc1cc2nc(C)nc(N[C@H](C)c3cccc(-c4cn[nH]c4C)c3)c2cc1OC` [Example 335, 6,7-dimethoxy-2-methyl-N-{(1R)-1-[3-(5-methyl-1H-pyrazol-4-yl)phenyl]ethyl}quinazolin-4-amine], the IC50 turned out to be 0.145 µM in assay [1] and 0.564 µM in assay [2].

`COc1cc2nc(C)nc(N[C@H](C)c3cccc(-c4c(C)noc4C)c3)c2cc1OC` [Example 336, N-{(1R)-1-[3-(3,5-dimethyl-1,2-oxazol-4-yl)phenyl]ethyl}-6,7-dimethoxy-2-methyl-quinazolin-4-amine]: the IC50 amounted to 0.687 µM in assay [1] and 1.99 µM in assay [2].

For the compound `COc1cc2nc(C)nc(N[C@H](C)c3cccc(-c4ccn[nH]4)c3)c2cc1OC` [Example 337, 6,7-dimethoxy-2-methyl-N-{(1R)-1-[3-(1H-pyrazol-5-yl)phenyl]ethyl}quinazolin-4-amine], the results for the half-inhibitory concentration (IC50) in assay [1] and in assay [2] were 0.344 µM and 1.35 µM, respectively.

Take `COc1cc2nc(C)nc(N[C@H](C)c3cccc(-c4cnn(C)c4)c3)c2cc1OC` [Example 338, 6,7-dimethoxy-2-methyl-N-{(1R)-1-[3-(1-methyl-1H-pyrazol-4-yl)phenyl]ethyl}quinazolin-4-amine]: the figures for the IC50 in assay [1] and in assay [2] were 0.325 µM and 1.39 µM, respectively.

On to `COc1cc2nc(C)nc(N[C@H](C)c3cccc(-c4ccnn4C)c3)c2cc1OC` [Example 339, 6,7-dimethoxy-2-methyl-N-{(1R)-1-[3-(1-methyl-1H-pyrazol-5-yl)phenyl]ethyl}quinazolin-4-amine], for which the IC50 is 0.815 µM in assay [1] and 1.99 µM in assay [2].

Take `COc1cc2nc(C)nc(N[C@H](C)c3cccc(-n4ccnc4)c3)c2cc1OC` [Example 340, N-{(1R)-1-[3-(1H-imidazol-1-yl)phenyl]ethyl}-6,7-dimethoxy-2-methylquinazolin-4-amine]: the IC50 in assay [1] amounted to 0.344 µM; in assay [2], 1.39 µM.

A word on the IC50: it is the midpoint of a concentration-inhibition curve.

The values are drawn from US20240083857A1, “2-Methyl-Quinazolines” (Bayer Pharma Aktiengesellschaft, priority 2017, published 2024).
